These results are taken from US20240217947A1, “Morpholinylquinazoline Compound, Pharmaceutical compositions thereof and Use Thereof” (SHANGHAI YINGLI PHARMACEUTICAL CO., LTD, priority 2022, published 2024).

Series [1] deals with T1, HDAC6 (Homo sapiens, UniProt Q9UBN7).
T1 sequence (Q9UBN7 1-1215): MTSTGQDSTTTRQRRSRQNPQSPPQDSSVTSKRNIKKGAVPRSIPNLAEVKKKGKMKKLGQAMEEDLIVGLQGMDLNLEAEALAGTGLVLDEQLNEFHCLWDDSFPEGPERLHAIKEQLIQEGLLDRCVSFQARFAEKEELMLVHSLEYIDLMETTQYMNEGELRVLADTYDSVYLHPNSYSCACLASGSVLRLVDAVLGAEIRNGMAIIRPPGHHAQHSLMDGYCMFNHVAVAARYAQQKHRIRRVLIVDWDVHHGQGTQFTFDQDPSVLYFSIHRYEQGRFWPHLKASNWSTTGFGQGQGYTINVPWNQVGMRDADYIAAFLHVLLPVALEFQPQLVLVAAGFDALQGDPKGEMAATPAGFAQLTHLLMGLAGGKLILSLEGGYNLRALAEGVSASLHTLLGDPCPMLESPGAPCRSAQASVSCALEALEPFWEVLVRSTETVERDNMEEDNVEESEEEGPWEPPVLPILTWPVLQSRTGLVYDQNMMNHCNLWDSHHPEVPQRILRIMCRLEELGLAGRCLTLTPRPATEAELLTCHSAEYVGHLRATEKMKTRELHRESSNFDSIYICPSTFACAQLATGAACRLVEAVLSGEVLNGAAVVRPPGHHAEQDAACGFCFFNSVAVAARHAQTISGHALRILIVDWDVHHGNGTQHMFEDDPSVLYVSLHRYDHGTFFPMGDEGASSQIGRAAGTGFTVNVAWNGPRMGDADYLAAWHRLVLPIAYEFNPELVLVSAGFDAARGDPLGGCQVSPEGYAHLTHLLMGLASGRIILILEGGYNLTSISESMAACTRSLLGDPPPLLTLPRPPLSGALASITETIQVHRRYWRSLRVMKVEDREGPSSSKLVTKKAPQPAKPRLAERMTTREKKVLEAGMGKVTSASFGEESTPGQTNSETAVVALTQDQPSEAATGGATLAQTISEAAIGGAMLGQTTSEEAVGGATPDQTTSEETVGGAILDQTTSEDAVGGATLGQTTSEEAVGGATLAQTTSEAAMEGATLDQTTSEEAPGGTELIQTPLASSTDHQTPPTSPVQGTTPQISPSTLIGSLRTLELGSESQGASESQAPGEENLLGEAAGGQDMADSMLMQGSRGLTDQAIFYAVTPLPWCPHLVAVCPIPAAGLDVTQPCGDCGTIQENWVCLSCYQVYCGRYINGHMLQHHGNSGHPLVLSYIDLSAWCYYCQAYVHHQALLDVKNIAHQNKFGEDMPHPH
In words: HDAC6 enzyme activity inhibition IC50 evaluation experiment. The format is biochemical. The note with it: HDAC6 5 nM, acetylated peptide 11 μM, trypsin, fluorescence. Here is the method:
(§1) Effect Example 2 HDAC1, HDAC2, HDAC3, HDAC6 enzyme activity inhibition IC50 evaluation experiment
(§2) Buffer solution (50 mM Tris 7.5, 0.01% Tween-20, 50 mM NaCl) was prepared according to the kit instructions, and the enzyme solution and substrate solution (acetylated peptide with the addition of trypsin) were prepared using the buffer solution. The test compound samples were dissolved with DMSO and added to the screening system at a certain starting concentration such as 10 μM, 3-fold dilution, while setting up a DMSO control and no-enzyme control. The enzyme reaction system includes: buffer, enzyme [final concentration: HDAC1=10 nM, HDAC2=4 nM, HDAC3=7 nM, HDAC6=5 nM], substrate (acetylated peptide) [final concentration: Peptide(HDAC1)=8 μM, Peptide(HDAC2)=10 μM, Peptide(HDAC3)=5 μM, Peptide(HDAC6)=11 μM], trypsin [final concentration: Trypsin(HDAC1,2,3)=0.05 μM, Trypsin(HDAC6)=0.1 μM], etc. The enzymes and compounds were reacted at room temperature for 15 min. After adding the substrate and Trypsin, centrifugation was performed for 1 min, and the fluorescence signal data (excitation wavelength 355 nM/emission wavelength 460 nm) was read continuously for 60 min using Envision, and the linear reaction segment was selected to obtain the slope and thus calculate the inhibition rate at that concentration. The IC50 value was obtained by fitting the curve using the formula Y=Bottom+(Top-Bottom)/(1+(IC50/X)^HillSlope).

For series [2], the target named is PI3Kδ (Homo sapiens, UniProt O00329). In words: PI3Kδ enzyme activity inhibition IC50 evaluation assay (ADP-Glo Kinase Assay). To be noted: ATP 25 μM, PIP2 50 μg/mL, 1 hour room temperature, read-out: PI3K-δ IC50. It is filed as biochemical. As for the experimental part: (§3) Effec Example 1 IC50 evaluation assay for PI3Kα, PI3Kδ, PI3Kβ and PI3Kγ enzyme activity inhibition
(§4) The experiment was performed using the ADP-Glo Kinase Assay kit, following the instructions. The following buffer solutions were prepared: 50 mM HEPES, pH 7.5, 3 mM MgCl2, 1 mM EGTA, 100 mM NaCl, 0.03% CHAPS, 2 mM DTT. The test compound samples were dissolved in DMSO and added to the screening system at a certain starting concentration such as 10 μM, 3-fold dilution, while setting up both DMSO control and no kinase control. The optimal concentrations of PI3Kα, PI3Kδ, PI3Kβ and PI3Kγ enzymes, substrate (PIP2) and ATP were prepared in buffer. The enzyme reaction system included: buffer, ATP 25 μM, kinase substrate (PIP2, 50 μg/mL), kinases [PI3Kα (0.15 μg/mL), PI3Kδ (1.2 μg/mL), PI3Kβ (0.3 μg/mL) and PI3Kγ (2.5 μg/mL)], etc. The reaction system was reacted at room temperature for 1 hour. The reaction was terminated by adding a termination reagent (ADP-Glo reagent, 5 μL), and the ADP content in the system was detected using a detection reagent (Kinase Detection Reagent, 10 μL). Signal data were collected using the Envision instrument. Calculate the percentage of (%) inhibition according to the following formula: % inhibition=(DMSO control signal value−sample signal value)/(DMSO control signal value−no-kinase control signal value). The IC50 value was obtained by fitting the curve using the formula Y=Bottom+(Top-Bottom)/(1+(IC50/X)^HillSlope).
For orientation: ADP-Glo turns the ADP formed in a reaction into a luminescent signal.

Series [3] has as its target PI3Kα (Homo sapiens, UniProt P42336). In words: PI3Kα enzyme activity inhibition IC50 evaluation assay (ADP-Glo Kinase Assay). The format is biochemical. The note with it: ATP 25 μM, PIP2 50 μg/mL, 1 hour room temperature, read-out: PI3K-α IC50. Here is the method:
as §3, §4

The target of series [4] is HDAC1 (Homo sapiens, UniProt Q13547). In words: HDAC1 enzyme activity inhibition IC50 evaluation experiment. It is filed as biochemical. The note with it: HDAC1 10 nM, acetylated peptide 8 μM, trypsin, fluorescence. Here is the method: as §1, §2
The target of series [5] is HDAC2 (Homo sapiens, UniProt Q92769). In words: HDAC2 enzyme activity inhibition IC50 evaluation experiment. The format is biochemical. To be noted: HDAC2 4 nM, acetylated peptide 10 μM, trypsin, fluorescence. Here is the method: as §1, §2
Series [6] concerns the target PI3Kγ (Homo sapiens, UniProt P48736). In words: PI3Kγ enzyme activity inhibition IC50 evaluation assay (ADP-Glo Kinase Assay). It is filed as biochemical. The note with it: ATP 25 μM, PIP2 50 μg/mL, 1 hour room temperature, read-out: PI3K-γ IC50. Here is the method:
as §3, §4

In series [7] the test system is relapsed and/or refractory B-cell malignant hematologic neoplasms. The note with it: patients with relapsed and/or refractory B-cell malignant hematologic neoplasms, orally 80 mg once daily for 4 weeks; cited from earlier work.
Series [8] concerns the target PI3Kβ (Homo sapiens, UniProt P42338). Description: PI3Kβ enzyme activity inhibition IC50 evaluation assay (ADP-Glo Kinase Assay). It is filed as biochemical. The note with it: ATP 25 μM, PIP2 50 μg/mL, 1 hour room temperature, read-out: PI3K-β IC50. Here is the method:
as §3, §4

Structures are written as SMILES. pIC50: −log10 of the molar value. Some results are limits rather than exact numbers.

Chain of HDAC1 (Q13547 whole entry, species assumed): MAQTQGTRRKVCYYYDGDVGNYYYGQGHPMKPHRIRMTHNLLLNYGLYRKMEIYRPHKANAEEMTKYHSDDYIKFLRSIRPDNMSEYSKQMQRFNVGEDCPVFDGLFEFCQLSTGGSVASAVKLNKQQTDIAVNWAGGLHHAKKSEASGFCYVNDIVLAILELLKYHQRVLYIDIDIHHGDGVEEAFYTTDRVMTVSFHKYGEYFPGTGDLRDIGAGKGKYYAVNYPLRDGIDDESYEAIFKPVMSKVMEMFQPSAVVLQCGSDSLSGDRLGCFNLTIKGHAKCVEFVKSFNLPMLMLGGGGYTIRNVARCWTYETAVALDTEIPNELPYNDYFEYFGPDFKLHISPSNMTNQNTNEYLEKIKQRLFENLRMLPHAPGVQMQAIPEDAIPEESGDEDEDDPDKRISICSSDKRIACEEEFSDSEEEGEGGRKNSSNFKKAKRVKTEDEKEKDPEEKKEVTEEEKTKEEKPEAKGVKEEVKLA
Chain of PI3Kα (P42336 whole entry, species assumed): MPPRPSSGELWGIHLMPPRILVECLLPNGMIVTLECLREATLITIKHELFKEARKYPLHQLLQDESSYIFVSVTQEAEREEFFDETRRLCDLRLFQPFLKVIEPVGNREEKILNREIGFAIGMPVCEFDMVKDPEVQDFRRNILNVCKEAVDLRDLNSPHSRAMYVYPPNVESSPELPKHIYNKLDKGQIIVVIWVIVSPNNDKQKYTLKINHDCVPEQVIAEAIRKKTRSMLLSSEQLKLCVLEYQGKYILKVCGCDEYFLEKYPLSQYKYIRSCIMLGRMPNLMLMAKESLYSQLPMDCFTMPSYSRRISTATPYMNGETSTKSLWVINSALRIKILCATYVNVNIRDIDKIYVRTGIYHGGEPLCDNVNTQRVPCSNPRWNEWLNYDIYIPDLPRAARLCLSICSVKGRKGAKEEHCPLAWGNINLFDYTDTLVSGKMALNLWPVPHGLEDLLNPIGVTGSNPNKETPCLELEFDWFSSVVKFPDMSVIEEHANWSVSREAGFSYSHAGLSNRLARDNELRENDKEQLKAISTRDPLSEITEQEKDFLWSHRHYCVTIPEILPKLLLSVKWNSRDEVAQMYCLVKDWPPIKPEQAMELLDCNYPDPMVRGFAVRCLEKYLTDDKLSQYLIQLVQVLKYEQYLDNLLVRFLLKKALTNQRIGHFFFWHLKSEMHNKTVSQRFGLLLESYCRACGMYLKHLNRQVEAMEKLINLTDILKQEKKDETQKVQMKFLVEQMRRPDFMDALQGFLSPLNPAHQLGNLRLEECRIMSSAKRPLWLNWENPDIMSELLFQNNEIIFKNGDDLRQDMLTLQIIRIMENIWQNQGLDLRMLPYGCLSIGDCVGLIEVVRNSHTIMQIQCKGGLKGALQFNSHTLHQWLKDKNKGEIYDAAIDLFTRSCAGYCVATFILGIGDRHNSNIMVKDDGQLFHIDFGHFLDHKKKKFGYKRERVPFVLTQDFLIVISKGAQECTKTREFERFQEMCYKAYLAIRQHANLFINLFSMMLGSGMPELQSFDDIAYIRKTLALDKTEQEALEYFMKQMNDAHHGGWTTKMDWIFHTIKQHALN
Chain of PI3Kα (P27986 whole entry partner, species assumed): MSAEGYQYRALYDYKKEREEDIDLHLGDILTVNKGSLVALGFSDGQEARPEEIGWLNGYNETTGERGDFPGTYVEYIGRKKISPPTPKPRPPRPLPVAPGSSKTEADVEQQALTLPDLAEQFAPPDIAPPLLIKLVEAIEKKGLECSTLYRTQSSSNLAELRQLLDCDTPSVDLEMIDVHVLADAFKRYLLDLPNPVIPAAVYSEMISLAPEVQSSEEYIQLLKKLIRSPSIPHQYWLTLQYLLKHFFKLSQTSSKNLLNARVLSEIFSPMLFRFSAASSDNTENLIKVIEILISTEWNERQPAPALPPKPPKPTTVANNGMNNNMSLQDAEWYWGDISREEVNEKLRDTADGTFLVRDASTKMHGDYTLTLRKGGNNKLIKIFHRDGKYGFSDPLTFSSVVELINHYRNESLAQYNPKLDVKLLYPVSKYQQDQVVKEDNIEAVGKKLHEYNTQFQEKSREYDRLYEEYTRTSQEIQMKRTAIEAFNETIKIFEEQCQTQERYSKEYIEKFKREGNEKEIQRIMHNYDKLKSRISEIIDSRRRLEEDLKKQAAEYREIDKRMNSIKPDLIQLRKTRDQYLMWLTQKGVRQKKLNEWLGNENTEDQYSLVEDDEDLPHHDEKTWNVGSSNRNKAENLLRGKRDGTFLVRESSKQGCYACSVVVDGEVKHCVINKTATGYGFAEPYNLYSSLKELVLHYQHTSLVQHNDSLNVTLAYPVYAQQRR
Chain of PI3Kδ (O00329 whole entry, species assumed): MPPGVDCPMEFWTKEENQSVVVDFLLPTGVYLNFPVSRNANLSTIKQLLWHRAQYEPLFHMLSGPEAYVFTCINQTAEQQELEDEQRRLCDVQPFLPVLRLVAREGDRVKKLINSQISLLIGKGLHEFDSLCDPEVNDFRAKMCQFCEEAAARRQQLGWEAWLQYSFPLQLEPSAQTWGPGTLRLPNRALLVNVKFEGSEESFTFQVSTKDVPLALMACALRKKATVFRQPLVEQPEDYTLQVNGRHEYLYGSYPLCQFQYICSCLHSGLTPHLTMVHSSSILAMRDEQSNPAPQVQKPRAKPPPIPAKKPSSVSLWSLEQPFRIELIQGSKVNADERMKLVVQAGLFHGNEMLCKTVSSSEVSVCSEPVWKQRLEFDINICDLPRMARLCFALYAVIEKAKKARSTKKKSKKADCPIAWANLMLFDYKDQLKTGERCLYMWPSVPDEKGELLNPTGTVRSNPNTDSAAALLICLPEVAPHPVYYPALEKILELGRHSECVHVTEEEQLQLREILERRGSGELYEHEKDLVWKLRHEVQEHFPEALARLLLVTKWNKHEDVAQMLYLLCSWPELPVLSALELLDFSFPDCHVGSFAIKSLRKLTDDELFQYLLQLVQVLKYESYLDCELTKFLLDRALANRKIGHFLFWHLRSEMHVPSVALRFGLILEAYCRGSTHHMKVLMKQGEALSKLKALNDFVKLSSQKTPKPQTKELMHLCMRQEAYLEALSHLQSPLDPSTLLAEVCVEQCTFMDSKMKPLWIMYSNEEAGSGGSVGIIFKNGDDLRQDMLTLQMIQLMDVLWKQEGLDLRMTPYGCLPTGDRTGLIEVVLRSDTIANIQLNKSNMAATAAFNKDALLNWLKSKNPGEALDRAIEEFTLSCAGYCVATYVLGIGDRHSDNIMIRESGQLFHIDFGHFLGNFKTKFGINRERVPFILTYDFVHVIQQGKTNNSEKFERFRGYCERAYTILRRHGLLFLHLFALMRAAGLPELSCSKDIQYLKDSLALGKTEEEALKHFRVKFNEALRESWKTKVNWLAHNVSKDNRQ
Chain of PI3Kδ (P27986 whole entry partner, species assumed): as the sequence (P27986 whole entry partner, species assumed) above
Chain of HDAC2 (Q92769 whole entry, species assumed): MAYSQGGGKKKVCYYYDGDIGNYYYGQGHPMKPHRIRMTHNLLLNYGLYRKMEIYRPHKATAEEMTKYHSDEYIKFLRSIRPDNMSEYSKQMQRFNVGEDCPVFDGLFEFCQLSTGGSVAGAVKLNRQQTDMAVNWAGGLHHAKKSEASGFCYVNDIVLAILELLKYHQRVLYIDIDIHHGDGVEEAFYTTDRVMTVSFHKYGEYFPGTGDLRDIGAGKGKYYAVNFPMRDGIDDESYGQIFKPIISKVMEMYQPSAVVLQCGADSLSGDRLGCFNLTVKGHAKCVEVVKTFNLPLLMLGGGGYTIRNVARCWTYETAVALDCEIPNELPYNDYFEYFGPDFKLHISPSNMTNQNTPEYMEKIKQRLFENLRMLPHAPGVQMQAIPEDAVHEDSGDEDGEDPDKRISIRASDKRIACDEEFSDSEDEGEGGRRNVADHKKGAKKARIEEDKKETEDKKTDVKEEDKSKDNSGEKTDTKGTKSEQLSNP
Chain of PI3Kβ (P42338 whole entry, species assumed): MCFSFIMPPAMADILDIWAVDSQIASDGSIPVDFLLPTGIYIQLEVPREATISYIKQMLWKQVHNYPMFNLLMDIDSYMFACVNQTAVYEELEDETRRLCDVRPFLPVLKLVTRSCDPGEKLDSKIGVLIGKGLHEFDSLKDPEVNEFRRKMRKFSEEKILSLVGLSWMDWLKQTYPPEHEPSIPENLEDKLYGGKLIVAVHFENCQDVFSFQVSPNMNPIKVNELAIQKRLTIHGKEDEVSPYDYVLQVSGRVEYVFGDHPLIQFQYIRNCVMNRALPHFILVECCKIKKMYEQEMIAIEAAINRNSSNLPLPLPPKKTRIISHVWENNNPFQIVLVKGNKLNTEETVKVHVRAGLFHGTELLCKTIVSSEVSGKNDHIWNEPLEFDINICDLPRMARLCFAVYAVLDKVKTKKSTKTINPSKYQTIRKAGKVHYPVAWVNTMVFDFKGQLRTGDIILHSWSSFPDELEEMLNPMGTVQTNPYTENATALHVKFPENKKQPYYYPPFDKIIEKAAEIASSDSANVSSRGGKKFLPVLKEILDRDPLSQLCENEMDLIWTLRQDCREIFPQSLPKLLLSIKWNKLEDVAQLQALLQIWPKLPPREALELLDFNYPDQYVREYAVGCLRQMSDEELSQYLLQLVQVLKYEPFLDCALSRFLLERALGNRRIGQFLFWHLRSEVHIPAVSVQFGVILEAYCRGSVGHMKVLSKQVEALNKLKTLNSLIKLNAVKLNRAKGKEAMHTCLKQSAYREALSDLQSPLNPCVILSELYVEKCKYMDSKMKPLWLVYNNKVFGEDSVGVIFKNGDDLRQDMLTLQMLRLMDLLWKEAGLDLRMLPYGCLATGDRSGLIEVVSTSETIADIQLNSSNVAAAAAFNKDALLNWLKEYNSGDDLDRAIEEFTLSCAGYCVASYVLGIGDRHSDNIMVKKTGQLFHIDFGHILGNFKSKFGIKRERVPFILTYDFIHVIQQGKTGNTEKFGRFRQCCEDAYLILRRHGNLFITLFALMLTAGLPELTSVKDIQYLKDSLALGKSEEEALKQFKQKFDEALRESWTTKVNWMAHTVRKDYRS
Chain of PI3Kβ (P27986 whole entry partner, species assumed): as the sequence (P27986 whole entry partner, species assumed) above

In general, pIC50 refers to −log10 of the IC50, conventionally taken in molar units. Regarding `CS(=O)(=O)Nc1cncc(-c2nc(N3CCOCC3)nc3c(CN4CCC(CCCC(=O)NO)CC4)cc(F)cc23)c1` [Compound 24], the pIC50 in series [1] is 7.00 to 8.00; in series [2], 7.00 to 8.00; in series [3], 5.00 to 6.00.
In the case of `COc1ncc(-c2nc(N3CCOCC3)nc3c(CN4CCC(CCCC(=O)NO)CC4)cc(F)cc23)cc1NS(=O)(=O)C1CC1` [Compound 25], the pIC50 in series [1] was 7.00 to 8.00; in series [2], 7.00 to 8.00; in series [3], 5.00 to 6.00.
For `COc1ncc(-c2nc(N3CCOCC3)nc3c(CN4CCC(CCCC(=O)NO)CC4)cc(F)cc23)cc1NS(=O)(=O)C(F)(F)F` [Compound 26], the pIC50 in series [1] was 7.00 to 8.00; in series [2], no less than 8.00; in series [3], 6.00 to 7.00.
Consider `COc1ncc(-c2nc(N3CCOCC3)nc3c(CN4CCC(CCNC(=O)NO)CC4)cc(F)cc23)cc1NS(C)(=O)=O` [Compound 28], for which the pIC50 is less than 5.00 in series [1], no less than 8.00 in series [2] and 6.00 to 7.00 in series [3].
On to `COc1ncc(-c2nc(N3CCOCC3)nc3c(CNc4ncc(C(=O)NO)cc4F)cc(F)cc23)cc1NS(C)(=O)=O` [Compound 35], for which the pIC50 is 7.00 to 8.00 in series [1], no less than 8.00 in series [4] and no less than 8.00 in series [2].
Turning to `COc1ncc(-c2nc(N3CCOCC3)nc3c(CNc4ccc(C(=O)NO)cc4F)cc(F)cc23)cc1NS(C)(=O)=O` [Compound 36], the pIC50 in series [1] was 7.00 to 8.00; in series [4], 6.00 to 7.00; in series [2] it was 7.00 to 8.00.
On to `COc1ncc(-c2nc(N3CCOCC3)nc3c(OC4CCC(c5ccc(C(=O)NO)cc5F)CC4)cc(F)cc23)cc1NS(C)(=O)=O` (stereo not drawn) [Compound 41], for which the pIC50 in series [1] was 6.00 to 7.00; in series [4], 5.00 to 6.00; in series [2] it was 6.00 to 7.00.
With `COc1ncc(-c2nc(N3CCOCC3)nc3c(OC4CCN(c5c(F)cc(C(=O)NO)cc5F)CC4)cc(F)cc23)cc1NS(C)(=O)=O` [Compound 42], the values for the pIC50 in series [1], in series [4] and in series [2] were 6.00 to 7.00, 5.00 to 6.00 and 7.00 to 8.00, respectively.
In the case of `COc1ncc(-c2nc(N3CCOCC3)nc3c(CN4CCc5cc(C(=O)NO)cc(F)c5C4)cc(F)cc23)cc1NS(C)(=O)=O` [Compound 43], the pIC50 in series [1] was 6.00 to 7.00; in series [4] it was 5.00 to 6.00; in series [2], 7.00 to 8.00.
As for `COc1ncc(-c2nc(N3CCOCC3)nc3c(OC4CCN(c5cc(C(=O)NO)no5)CC4)cc(F)cc23)cc1NS(C)(=O)=O` [Compound 44], the pIC50 was 6.00 to 7.00 in series [5], 7.00 to 8.00 in series [1], 6.00 to 7.00 in series [4] and 7.00 to 8.00 in series [2].
`COc1ncc(-c2nc(N3CCOCC3)nc3c(OCc4ncc(C(=O)NO)cc4F)cc(F)cc23)cc1NS(C)(=O)=O` [Compound 45]: the pIC50 in series [5] was 5.00 to 6.00; in series [1], 7.00 to 8.00; in series [4], 6.00 to 7.00; in series [2], 5.00 to 6.00.
`COc1ncc(-c2nc(N3CCOCC3)nc3c(CN4CCC(C(C)(C)O)CC4)cc(F)cc23)cc1NS(C)(=O)=O` [YY-20394, N-(5-(6-fluoro-8-((4-(2-hydroxypropyl-2-yl)piperidin-1-yl)methyl)-2-morpholine-quinazolin-4-yl)-2-methoxypyridin-3-yl)methanesulfonamide, reference compound]: the pIC50 was less than 5.00 in series [6]; less than 5.00 in series [1]; no less than 8.00 in series [2]; 6.00 to 7.00 in series [8]; 6.00 to 7.00 in series [3]. The “clinical benefit in clinical studies” value in series [7] was “clinical benefit”. Besides, the “safety profile in clinical studies” value in series [7] is listed as “favorable safety profile”.
